The source of these data is patent US10253300B2, “Adapted rhinovirus C” (Wisconsin Alumni Research Foundation, priority 2015, dated 2019).

Entries after “also recorded” stand apart in the source; their conditions may differ.

Test [1] deals with C15a. The test can be described thus: Inhibition of virus binding and replication by preincubation with heparin, HS or glycans: C15a. In kind it is cell-based, rhinovirus C. The following applies: for inhibition of virus binding to HeLa-E8 cells: heparin or HS 1-2 mg/ml preincubation. On the procedure: (§1) FIGS. 4A-4E—Heparin and heparan sulfate effects. (A) Virus samples (5×10^5 PFUe) were incubated with heparin (2 mg/ml) or medium alone (no heparin) for 30 min at 34° C., before inoculation of HeLa-E8 cells. After an attachment period (30 min at room temp, 30 min at 34° C.) the cells were washed (3×PBS), harvested and tested by RT-qPCR for the attached virus RNA signals (means±s.d., n≥3). (*) indicates p<0.05 significance (t-test). (B) C15a and C15 K125 (5×10^5 PFUe) were incubated with heparin or heparan sulfate (1 mg/ml) as in A, before HeLa-E8 infections and virus binding assays. (C) The C15a experiment in A was repeated using different doses of heparin in the preincubation. (D) HeLa-E8 cells (12 well-plates) were treated (37° C., 2 h) with the indicated dose (U) of heparinase I before inoculation with C15a virus (5×10^5 PFUe) and tested for virus binding as in A. (E) C15a and recombinant C15 K125/K41 viruses (5×10^5 PFUe) were incubated with heparin (1 mg/ml, 30 min, 34° C.) before inoculation of HeLa-E8 or HeLa-H1 cells. After an attachment period (30 min at room temp, 30 min at 34° C.), the cells were washed with PBS (3×). Cells were harvested and assayed for the attached virus (1 h p.i.) and progeny virus (24 h p.i.) RNA signals by RT-qPCR (means±s.d., n=3).
FIGS. 9A-9B—Glycan effects on virus binding assays. (A) Recombinant C15 or (B) polyclonal C15a were incubated in media with the indicated sialylated glycans (1 mg/ml, see below) before being tested for binding to HeLa-E8 cells. Virus (5×10^5 PFUe) and glycan were mixed (30 min, 34° C.), then added to plated cells (30 min, room temp), before the samples were again incubated at 34° C. for an additional 30 min. The cells were washed (3×) before total RNA was extracted and assayed for C15 titer by RT-qPCR. For SNA and MALII samples, the cells, rather than virus were pretreated (100 μg/ml for 30 min, room temp) before the virus addition step. The plotted values are the averages of duplicate samples (n=2). Glycan reagents include: SLN 2-3 (3′-Sialy-N-acetyllactosamine, V-Labs, Inc), 1 mg/ml; SLN 2-6 (6′-Sialy-N-acetyllactosamine, V-Labs, Inc), 1 mg/ml; SLN 2-8 (Neu5Ac2-8Neu5Ac2-8Neu5Ac-sp-biotin, GlycoTech), 1 mg/ml; GlcNac 1-4 (GlcNAcb1-4GlcNAcb-sp-biotin, GlycoTech), 1 mg/ml; SNA (Sambucus Nigra Lectin, Vector Laboratories), 100 μg/ml; MAUI (Maackia Amurensis Lectin, Vector Laboratories), 100 μg/ml.
(§2) Purified virus (5×10^5 PFUe) was pre-incubated with tested compounds (sialic acid and sugar di- or trisaccharides, heparin or HS) for 30 min at 34° C. before inoculation of HeLa cell monolayers (30 min, room temp; 30 min, 34° C.). Cells were washed three times with PBS, lysed with the RLT buffer (Qiagen) and stored at −80° C. before total RNA extraction and RT-qPCR for C15. For SNA and MAUI samples, the cells, rather than virus were pretreated (100 μg/ml for 30 min, room temp) before the virus addition step. HeLa-E8 cells were washed with PBS containing 1 mM MgCl2 and 1 mM CaCl2 (PBS^++) and incubated for 2 hours at 37° C. with 2.5-10 U of heparinase I in PBS^++ before inoculation with purified virus (10^6 PFUe) for 1 hour at 34° C.

The test system of a further test is C15 K125. The test can be described thus: Inhibition of virus binding by preincubation with heparin or HS: C15 K125. In kind it is cell-based, rhinovirus C. The following applies: for inhibition of virus binding to HeLa-E8 cells: heparin or HS 1-2 mg/ml preincubation. The method, then:
as §1, §2

For another test, the system named is A16. Put plainly: Inhibition of virus binding by preincubation with heparin: A16. It is filed as cell-based, RV-A. Particulars: heparin 2 mg/ml preincubation. The method, then: as §1, with “n=3). […]” for “n=3).”
The subject of the next test is recombinant C15 K125/K41. The test can be described thus: Inhibition of virus binding and replication by preincubation with heparin: recombinant C15 K125/K41. In kind it is cell-based, rhinovirus C. The following applies: heparin 1 mg/ml. The method, then:
as §1, with “n=3). […]” for “n=3).”

Another test deals with unadapted C15 virus. Put plainly: Inhibition of virus binding by preincubation with heparin: unadapted C15. It is filed as cell-based, rhinovirus C. Particulars: heparin 2 mg/ml preincubation. On the procedure: as §1, with “n=3). […]” for “n=3).”
The subject of a further test is Ala viruses. The test can be described thus: Inhibition of virus binding by preincubation with heparin: Ala. In kind it is cell-based. Particulars: heparin 2 mg/ml preincubation. The method, then: as §1, with “n=3). […]” for “n=3).”
Test [2] relates to C15a. The test can be described thus: Heparinase I pretreatment of HeLa-E8 cells, virus binding: C15a. It is filed as cell-based, rhinovirus C. On the procedure: as §1, with “n=3). […]” for “n=3).”
The test system of a further test is RV-C15-K125. Put plainly: Heparinase I treatment, virus binding to HeLa-E8: RV-C15-K125. It is filed as cell-based, rhinovirus C. The method, then: as §2
Receptor specificity switch has been documented for some major receptor group RVs (e.g. RV-A89) that were adapted for growth in ICAM-1-deficient cells by serial or alternate passages in HEp-2 and HeLa cells (Reischl et al., 2001; Vlasak et al., 2005). A HEp-2-adapted RV-A89 variant can utilize HS proteoglycans as a cellular receptor (Vlasak et al., 2005). […] In contrast to RV-A89, RV-C15 adaptation by passaging in HeLa cells occurred in the absence of selective pressure for binding specificity change. This process has also been observed in some other picornaviruses and alphaviruses (Sa-Carvalho et al., 1997; Klimstra et al., 1998; Smit et al., 2002). […]

Setting [3] is: heparin 2 mg/ml, 30 min 34° C. preincubation, 5×10^5 PFUe, HeLa-E8.

For the substance heparan sulfate [HS], the “inhibition of virus binding to HeLa-E8 cells” value (from here on “inhibition of virus binding”) with C15a [1] and with C15 K125 was “had this effect; also recorded: inhibited” in each case.

Take heparin: the “effect of heparin on virus interaction with HeLa-E8 cells” value in the test on A16, in the test on unadapted C15 virus and in the test on Ala viruses was “not affected” throughout. Besides, in the test on C15a [1] (different doses of heparin in the preincubation, HeLa-E8), the “dose dependence of inhibition of binding” value is reported as “dependent upon the dose”. Besides, the “effect of heparin on binding and replication in HeLa-H1 cells” value is “abolished” in the test on C15a [1] (heparin 1 mg/ml, 1 h and 24 h p.i.); “abolished” with recombinant C15 K125/K41 (1 h and 24 h p.i.). For the same substance, the “replication in HeLa-E8 cells despite the heparin treatment” value in the test on C15a [1] (heparin 1 mg/ml, 24 h p.i.) is listed as “still replicated (to a degree)”; in the test with recombinant C15 K125/K41 (24 h p.i.) it was “still replicated (to a degree)”. The “reduction of binding titer by heparin” value in the test with C15a [1] (setting [3]) came out at 17 fold; in the test on C15 K125 (setting [3]) it was 44 fold. In addition, the “inhibition of virus binding” value in the test with C15a [1] and in the test on C15 K125 was “inhibited” in each case.

Regarding heparinase I, in the test with C15a [2] (2.5-10 U heparinase I, 37° C., 2 h), the “reduction of C15a binding after heparinase I pretreatment of HeLa-E8 cells” value is given as “more than 7 fold”. Moreover, the “inhibition of virus binding” value with C15a [2] (heparinase I treatment) and in the test with RV-C15-K125 was “inhibited” throughout.
